The text below walks through data of patent US20260198495A1, “BINARY INSECTICIDE COMPOSITION AND USE THEREOF” (SHENYANG SINOCHEM AGROCHEMICALS R & D CO., LTD., priority 2022, published 2026).

For orientation: mortality means the share of the test organisms that died.

What all share (type): in vivo
For data set [1], the system named is 3rd-instar larvae of Ostrinia furnacalis Guenee. Put plainly: Synergism screening (Bliss) of I-72 + ecdysteroid and juvenile hormone insecticides, Example 51, Table 51. The following applies: for mortality at 0.04 µg/mL / mortality at 2 µg/mL / mortality at 100 µg/mL / mortality at 0.1 µg/mL / mortality at 40 µg/mL: Ostrinia furnacalis, 72 h, read-out: Measured mortality rate; for Measured mortality rate: single pesticide, 72 hours. As to the method:
Test target: 3rd-instar larvae of Ostrinia furnacalis Guenee.
(§1) Preparation of the pesticide solution: according to different test requirements, the test samples were accurately weighed respectively with an electronic analytical balance. The technical pesticides were dissolved in acetone, and then diluted with 0.1% Tween 80 water into a series of pesticide solutions with a certain concentration gradient according to the experimental design dosage.
Experimental method: first, tender corn stems were selected and dipped in the prepared pesticide solution for 10 s in the order from low dosage to high dosage according to the experimental design. After natural air-drying in the shade, they were placed in a 9-cm-diameter Petri dish with filter paper, and uniform and healthy test insects were introduced, with 10 insects for each treatment and 3 replicates for each treatment. In addition, a blank control (CK) was set up.
(§2) The treated test materials were placed in an observation room, and the temperature, humidity and illumination of the observation room could be adjusted as needed. The number of dead and alive insects was investigated 72 hours later, and the corrected mortality rate was calculated using the Abbott's formula.
(§3) The synergism of the mixture was evaluated by adopting the Bliss method, as in Example 5.

For data set [2], the system named is Sitobion miscanthi (Fabricius). Put plainly: whole plant or invertebrate. The conditions noted are these: for Measured mortality rate: single pesticide, 48 hours. The protocol: Test target: Sitobion miscanthi (Fabricius).
as §1
Experimental method: first, wheat seedlings with uniform and consistent Sitobion miscanthi (Fabricius) were selected, with about 30-40 insects on each pot of wheat. Then, they were evenly sprayed with the pesticide solution in the order from low dosage to high dosage according to the experimental design, with 2.5 mL for each pot and 3 replicates for each treatment. In addition, a blank control CK was set up.
The treated test materials were placed in an observation room, and the temperature, humidity and illumination of the observation room could be adjusted as needed. The number of dead and alive insects was investigated 48 hours later, and the corrected mortality rate was calculated using the Abbott's formula.
The synergism of the mixture was evaluated by the Bliss method. According to the concept of independent joint action he proposed, Bliss believes that the theoretical mortality rate P when insecticides are used in combination can be calculated by the following formula: […]
Pm is the measured mortality rate (%) of the target when the first active ingredient is at a concentration of m; and Pn is the measured mortality rate (%) of the target when the second active ingredient is used at a concentration of n.
(§4) If the actual mortality rate of the target after the two active ingredients are mixed at a certain concentration is greater than theoretical mortality rate P, it is determined that the two active ingredients have a synergistic effect when used in combination at the set concentration, and otherwise, they have an antagonistic effect.

Data set [3] relates to 3rd-instar larvae of Pyrausta nubilalis Hubern. The data set is described as follows: Synergism assay (Bliss) of I-72 + cartap, monosultap, bisultap, Example 5, Table 5. The following applies: 72 h. As to the method: Test subject: 3rd-instar larvae of Pyrausta nubilalis Hubern, a sensitive strain reared indoors.
Test conditions: temperature: 24-26° C., humidity: RH 60%, and illumination: L:D=14:10
Preparation method: the test pesticides were accurately weighed respectively with an electronic analytical balance. After the two technical materials were respectively added into an appropriate amount of solvent and completely dissolved, the stock solution of the required concentration was prepared with water containing 0.1% Tween 80. The stock solutions of the two active ingredients were mixed in a certain ratio to prepare a mixed solution, which was then diluted respectively into a series of pesticide solutions with a certain concentration gradient according to the experimental design dosage.
Experimental method: the artificial diet-pesticide film method was adopted. A standard clean 24-well culture plate was selected. 1 ml of artificial diet was added to each well. After the diet cooled and solidified, a quantitative amount of a pesticide solution was added to the culture plate using a continuous sampler, and then it was air-dried naturally in the shade. The standard test insects were introduced, with 1 insect in each well, a total of 48 insects. The treated test insects were placed in an observation room under certain conditions. The reaction of the test insects was regularly observed, and the number of dead and live insects was investigated 72 h later.
The evaluation method adopted was the Bliss method. This method is applicable to the qualitative screening of insecticidal compositions. According to the concept of independent joint action he proposed, Bliss believes that the theoretical mortality rate P when insecticides are used in combination can be calculated by the following formula: […]
Pm is the mortality rate (%) of the target when the first active ingredient is at a concentration of m; and Pn is the mortality rate (%) of the target when the second active ingredient is at a concentration of n.
as §4

For data set [4], the system named is 2nd-instar larvae of Plutella xylostella. The data set is described as follows: Synergism screening (Bliss) of I-72 + insect attractants and insecticides, Example 49, Table 49. The following applies: for Measured mortality rate: single pesticide, 72 hours. As to the method: Test target: 2nd-instar larvae of Plutella xylostella.
as §1
Experimental method: first, cabbage leaves were selected and dipped in the prepared pesticide solution for 10 s in the order from low dosage to high dosage according to the experimental design. After natural air-drying in the shade, they were placed in a 9-cm-diameter Petri dish with filter paper, and uniform and healthy test insects were introduced, with 10 insects for each treatment and 3 replicates for each treatment. In addition, a blank control CK was set up.
as §2, §3

The subject of a further data set is Rhizoctonia solani. The data set is described as follows: Control efficacy against Rhizoctonia solani, rice seedling potting method, Example 89, Table 89. The following applies: rice seedlings, foliar spraying. As to the method:
Control efficacy of the composition containing the compound I-72 against Rhizoctonia solani
Test target: Rhizoctonia solani, a sensitive strain cultured indoors.
The trial adopted the seedling potting method. Test crop: rice. Experimental method: the rice seedlings were cultured to the 2-leaf stage in the greenhouse of the experimental materials. Foliar spraying treatment was performed on the crop sprayer according to the designed dosage. The test target strain was inoculated 24 hours after the pesticide treatment. All the inoculated experimental materials were cultured in a phytotron. […] The disease grading and the calculation method of the control efficacy both referred to the agricultural industry standards of the People's Republic of China.

Setting [5] is: Sitobion miscanthi, in Triticum aestivum, 48 h, read-out: Measured mortality rate.
The mark [6] stands for this setting: Ostrinia nubilalis, read-out: Mortality rate (%).
[7] abbreviates: Plutella xylostella, 72 h, read-out: Measured mortality rate.

`COC(C)(C)CCC[C@H](C)C/C=C/C(C)=C/C(=O)OC(C)C` (racemic) [Methoprene]: in data set [1], the mortality at 0.04 µg/mL was 10%, the mortality at 2 µg/mL stood at 17.9% and the mortality at 100 µg/mL was determined as 25%.
Consider `CC(C)(C)[C@@H](O)[C@@H](Cc1ccc(Cl)cc1)n1cncn1` (racemic) [Paclobutrazol], for which, in data set [2] (setting [5]), the mortality at 1 µg/mL was found to be 6.8%, the mortality at 10 µg/mL turned out to be 7.8% and the mortality at 100 µg/mL was found to be 11.3%.
Regarding `CN(C)C(CSS(=O)(=O)[O-])CSS(=O)(=O)[O-].[Na+].[Na+]` [Bisultap, bisultap], the “Mortality rate (%)” value came to 0% in data set [3] (single agent 0.1 mg/L), 4.17% in data set [3] (single agent 1 mg/L), 10.42% in data set [3] (single agent 5 mg/L) and 22.92% in data set [3] (single agent 10 mg/L).
As for `CC(C)[C@H](C)[C@@H](O)[C@H](O)[C@@H](C)[C@H]1CC[C@H]2[C@@H]3COC(=O)[C@H]4C[C@H](O)[C@H](O)C[C@]4(C)[C@H]3CC[C@]12C` [Brassinolide], the results for the Measured mortality rate in data set [2] (0.5 mg/L), in data set [2] (10 mg/L) and in data set [2] (200 mg/L) were 6.7%, 8.8% and 12.6%, respectively.
On to `CN(C)C(CSC(N)=O)CSC(N)=O` [Cartap, cartap], for which, in data set [3] (setting [6]), the mortality at 0.1 µg/mL stood at 2.08%, the mortality at 1 µg/mL turned out to be 10.4%, the mortality at 5 µg/mL was 20.8% and the mortality at 10 µg/mL turned out to be 43.8%.
Consider `Nc1nc(N)nc(NC2CC2)n1` [Cyromazine], for which, in data set [1], the mortality at 0.1 µg/mL was 6.9%, the mortality at 2 µg/mL stood at 10.7% and the mortality at 40 µg/mL stood at 21.2%.
In the case of `O=P(O)(O)CCCl` [Ethephon], in data set [2] (setting [5]), the mortality at 0.2 µg/mL came to 7%, the mortality at 10 µg/mL came out at 8.8% and the mortality at 500 µg/mL was found to be 15%.
For the compound `Cc1cc(C)cc(C(=O)N(NC(=O)c2ccc3c(c2C)OC(C)C3)C(C)(C)C)c1` (stereo not drawn) [Fufenozide], the Measured mortality rate in data set [1] (0.1 mg/L) is 9.4%; in data set [1] (2 mg/L), 15.4%; in data set [1] (40 mg/L), 41.9%.
Consider `C=C1C[C@]23C[C@@]1(O)CC[C@H]2[C@@]12C=C[C@H](O)[C@@](C)(C(=O)O1)[C@H]2[C@@H]3C(=O)O` [Gibberellic acid], for which, in data set [2] (setting [5]), the mortality at 0.5 µg/mL was 5.9%, the mortality at 10 µg/mL was found to be 10% and the mortality at 200 µg/mL came to 12.5%.
As for `CCN1OCC(NC(=O)c2ccc(C3=NOC(c4cc(Cl)c(F)c(Cl)c4)(C(F)(F)F)C3)cc2C)C1=O` (stereo not drawn) [Isocycloseram], the Measured mortality rate amounted to 17.9% in data set [4] (0.01 mg/L), 71.9% in data set [4] (0.1 mg/L) and 80.0% in data set [4] (1 mg/L).
Turning to `COc1cccc(C(=O)NN(C(=O)c2cc(C)cc(C)c2)C(C)(C)C)c1C` [Methoxyfenozide], in data set [1], the mortality at 0.1 µg/mL amounted to 11.1%, the mortality at 2 µg/mL was found to be 18.8% and the mortality at 40 µg/mL worked out at 50%.
On to `CN(C)C(CSS(=O)(=O)[O-])CSS(=O)(=O)O.[Na+]` [Monosultap, monosultap], for which the “Mortality rate (%)” value in data set [3] (single agent 0.1 mg/L) was 0%; in data set [3] (single agent 1 mg/L) it was 6.25%; in data set [3] (single agent 5 mg/L), 18.75%; in data set [3] (single agent 10 mg/L) it was 29.17%.
As for `CCCCCCCC/C=C\CCCCCCCCCCCCC` [Muscalure], the Measured mortality rate is 3.1% in data set [4] (0.002 mg/L), 10.0% in data set [4] (0.1 mg/L) and 20.7% in data set [4] (5 mg/L).
Turning to `FC(F)(F)c1ccc(OCCCOc2c(Cl)cc(OCC=C(Cl)Cl)cc2Cl)nc1` [Pyridalyl], in data set [4] (setting [7]), the mortality at 0.005 µg/mL was found to be 8%, the mortality at 0.1 µg/mL was found to be 12.9% and the mortality at 2 µg/mL was found to be 24.1%.
For `CC(COc1ccc(Oc2ccccc2)cc1)Oc1ccccn1` (stereo not drawn) [Pyriproxyfen], in data set [1], the mortality at 0.04 µg/mL stood at 7.1%, the mortality at 2 µg/mL was found to be 9.7% and the mortality at 100 µg/mL came out at 16.1%.
Turning to `CC1=CC(=O)CC(C)(C)[C@@]1(O)/C=C/C(C)=C/C(=O)O` [S-abscisic acid], the Measured mortality rate turned out to be 7.9% in data set [2] (1 mg/L), 8.3% in data set [2] (10 mg/L) and 10.3% in data set [2] (100 mg/L).
Regarding `CCc1ccc(C(=O)NN(C(=O)c2cc(C)cc(C)c2)C(C)(C)C)cc1` [Tebufenozide], in data set [1], the mortality at 0.1 µg/mL amounted to 10.3%, the mortality at 2 µg/mL was determined as 17.2% and the mortality at 40 µg/mL came to 46.4%.
Regarding `CCCCc1c(C)c2ccc(OCc3ccccc3/C(=C\OC)C(=O)OC)cc2oc1=O` [coumoxystrobin], the Control efficacy amounted to 44.3% in the data set with Rhizoctonia solani (5 mg/L, A = compound I-72, B = coumoxystrobin); 61.9% with Rhizoctonia solani (10 mg/L, A = compound I-72, B = coumoxystrobin); 81.5% in the data set with Rhizoctonia solani (20 mg/L, A = compound I-72, B = coumoxystrobin).
For the compound `CO/C=C(/C(=O)OC)c1ccccc1COc1cc(-c2ccc(Cl)cc2)nn1C` [pyraoxystrobin], the Control efficacy stood at 42.8% in the data set on Rhizoctonia solani (5 mg/L, A = compound I-72, B = pyraoxystrobin); 71.5% in the data set with Rhizoctonia solani (10 mg/L, A = compound I-72, B = pyraoxystrobin); 82.4% with Rhizoctonia solani (20 mg/L, A = compound I-72, B = pyraoxystrobin).
